Results from patent US9676789B2, “Aminated derivative of homoharringtonine, preparation method therefor, and application thereof” (HANGZHOU BENSHENG PHARMACEUTICAL CO., LTD., priority 2011, dated 2017).
Converted amounts (≈) assume the structure as drawn.

Tests used:
[1] = tested on: NB4 (acute promyelocytic leukemia, AML); test: MTT leukemia cell growth inhibition, 72 h; type: cell-based, human; conditions: Homo sapiens, NB4, 72 h; for IC50: read-out: IC50; for IC90: read-out: IC90
Description: (§1) Leukemia cell lines: K562/adr (drug-resistant, chronic myeloid leukemia, CML), NB4 (acute promyelocytic leukemia, AML), Kasumi-1 (acute myeloid leukemia M2 type, AML-M2), Jurkat (acute lymphoblastic leukemia, ALL), all of which are donated by Cancer Research Institute of Zhejiang University, China; and H9 (acute lymphoblastic leukemia, ALL), which is purchased from China Center for Type Culture Collection.
(§2) Obtaining 6000 well-growing leukemia cells and inoculating them into wells of a 96-well cell culture plate. The culture medium is the 1640 cell culture medium containing 10% fetal bovine serum. After adding the homoharringtonine derivatives of different concentrations and mixing uniformly, placing the plate in a carbon dioxide cell incubator (5% CO2) at 37° C. and incubating for 72 hours. Then the viable cell concentration is determined by the MTT method. In this experiment, the cell viability in control group (not treated with any compound) is set as 100%.

[2] = tested on: K562/adr (drug-resistant, chronic myeloid leukemia, CML); test: MTT leukemia cell growth inhibition, 72 h; type: cell-based, human; conditions: Homo sapiens, K562/Adr; for IC50: read-out: IC50; for IC90: read-out: IC90
Description: as §1, §2

[3] = tested on: H9 (acute lymphoblastic leukemia, ALL); test: MTT leukemia cell growth inhibition, 72 h; type: cell-based, human; conditions: Homo sapiens, H9, 72 h; for IC50: read-out: IC50; for IC90: read-out: IC90
Description: as §1, §2

[4] = tested on: Kasumi-1 (acute myeloid leukemia M2 type, AML-M2); test: MTT leukemia cell growth inhibition, 72 h; type: cell-based, human; conditions: Homo sapiens, Kasumi-1, 72 h; for IC50: read-out: IC50; for IC90: read-out: IC90
Description: as §1, §2

[5] = tested on: Jurkat (acute lymphoblastic leukemia, ALL); test: MTT leukemia cell growth inhibition, 72 h; type: cell-based, human; conditions: Homo sapiens; for IC50: read-out: IC50; for IC90: read-out: IC90
Description: as §1, §2

[6] = tested on: Huh7 (human liver cancer cell); test: MTT solid tumor cell growth inhibition, 72 h; type: cell-based; conditions: Homo sapiens, Huh-7, Huh7, 72 h; for IC50: read-out: IC50; for IC90: read-out: IC90
Method: (§3) Human solid tumor cell lines: Hep-2 ([…]), A549 (human lung cancer), CaES-17 (esophageal cancer cell), PC-3 (prostate cancer), CNE (nasopharyngeal carcinoma cell), and SK-OV-3 (ovarian cancer cell), all of which are purchased from China Center For Type Culture Collection; RKO (human colon adenocarcinoma cell), MGC 803 (human gastric cancer cell), MG63 (osteosarcoma) and U87 MG (malignant glioma cell), all of which are purchased from Fuxiang Bio-tech Co. Ltd., Shanghai, China; PANC-1 (pancreatic cancer), Huh7 (human liver cancer cell), Becap37 (human breast cancer cell), and Hela (human cervical cancer cell), all of which are donated by Cancer Research Institute of Zhejiang University, China.
(§4) Obtaining 4000 well-growing human solid tumor cells and inoculating them into wells of a 96-well cell culture plate. The culture medium is DMEM High Glucose cell culture medium containing 10% fetal bovine serum. The plate is placed in a carbon dioxide cell incubator (5% CO2) at 37° C. and incubating for 24 hours. After adding the homoharringtonine derivatives of different concentration and mixing uniformly, the plate is placed in a carbon dioxide cell incubator (5% CO2) at 37° C. and incubating for 72 hours. Then the viable cell concentration is determined by the MTT method and the cell viability (%) after drug treatment is calculated. In this experiment, the cell viability of control group (not treated with any compound) is set as 100%.

[7] = tested on: MGC 803 (human gastric cancer cell); test: MTT solid tumor cell growth inhibition, 72 h; type: cell-based; conditions: Homo sapiens, MGC 803, 72 h; for IC50: read-out: IC50; for IC90: read-out: IC90
Method: as §3, §4

[8] = tested on: Hep-2 (human hepatocellular carcinoma); test: MTT solid tumor cell growth inhibition, 72 h; type: cell-based; conditions: Homo sapiens, HEp-2, Hep2, 72 h; for IC50: read-out: IC50; for IC90: read-out: IC90
Method: as §3, §4

[9] = tested on: RKO (human colon adenocarcinoma cell); test: MTT solid tumor cell growth inhibition, 72 h; type: cell-based; conditions: Homo sapiens; for IC50: read-out: IC50; for IC90: read-out: IC90
Method: as §3, §4

[10] = tested on: A549 (human lung cancer); test: MTT solid tumor cell growth inhibition, 72 h; type: cell-based; conditions: Homo sapiens, A549, 72 h; for IC50: read-out: IC50; for IC90: read-out: IC90
Method: as §3, §4

[11] = tested on: Becap37 (human breast cancer cell); test: MTT solid tumor cell growth inhibition, 72 h; type: cell-based; conditions: Homo sapiens, Becap37, 72 h; for IC50: read-out: IC50; for IC90: read-out: IC90
Method: as §3, §4

[12] = tested on: Hela (human cervical cancer cell); test: MTT solid tumor cell growth inhibition, 72 h; type: cell-based; conditions: Homo sapiens, HeLa; for IC50: read-out: IC50; for IC90: read-out: IC90
Method: as §3, §4

[13] = tested on: CaES-17 (esophageal cancer cell); test: MTT solid tumor cell growth inhibition, 72 h; type: cell-based, human; conditions: Homo sapiens, CaEs17, CaES-17, 72 h; for IC50: read-out: IC50; for IC90: read-out: IC90
Method: as §3, §4

[14] = tested on: PC-3 (prostate cancer); test: MTT solid tumor cell growth inhibition, 72 h; type: cell-based, human; conditions: Homo sapiens, PC-3, 72 h; for IC50: read-out: IC50; for IC90: read-out: IC90
Method: as §3, §4

[15] = tested on: CNE (nasopharyngeal carcinoma cell); test: MTT solid tumor cell growth inhibition, 72 h; type: cell-based, human; conditions: Homo sapiens; for IC50: read-out: IC50; for IC90: read-out: IC90
Method: as §3, §4

[16] = tested on: MG63 (osteosarcoma); test: MTT solid tumor cell growth inhibition, 72 h; type: cell-based, human; conditions: Homo sapiens, MG 63, 72 h; for IC50: read-out: IC50; for IC90: read-out: IC90
Method: as §3, §4

[17] = tested on: SK-OV-3 (ovarian cancer cell); test: MTT solid tumor cell growth inhibition, 72 h; type: cell-based, human; conditions: Homo sapiens, SK-OV-3, 72 h; for IC50: read-out: IC50; for IC90: read-out: IC90
Method: as §3, §4

[18] = tested on: U87 MG (malignant glioma cell); test: MTT solid tumor cell growth inhibition, 72 h; type: cell-based, human; conditions: Homo sapiens, U-87 MG; for IC50: read-out: IC50; for IC90: read-out: IC90
Method: as §3, §4

[19] = tested on: PANC-1 (pancreatic cancer); test: MTT solid tumor cell growth inhibition, 72 h; type: cell-based, human; conditions: Homo sapiens, PANC-1, 72 h; for IC50: read-out: IC50; for IC90: read-out: IC90
Method: as §3, §4

[20] = tested on: RPMI8226 (multiple myeloma); test: MTT multiple myeloma cell growth inhibition, 72 h; type: cell-based, human; conditions: Homo sapiens, RPMI-8226, RPMI8226, 72 h; for IC50: read-out: IC50; for IC90: read-out: IC90
Method: Multiple myeloma and lymphoma cell lines: RPMI8226 (multiple myeloma), purchased from Fuxiang Bio-tech Co. Ltd., Shanghai, China.
as §2, with “method.” for “method. In this experiment, the cell viability in control group (not treated with any compound) is set as 100%.”

[21] = tested on: A549, PANC-1, Becap37, MG63, Huh7, RKO, Hela, CaES-17, CNE, Hep-2, PC-3 and SK-OV-3; test: Anti-human solid tumor effect, summary over cell lines; type: cell-based; conditions: result in words, summary of Table 2
Method: as §3, §4

COC1=C[C@]23CCCN2CCc2cc4c(cc2[C@@H]3[C@@H]1OC(=O)[C@@](O)(CCCC(C)(C)O)CC(=O)N1CCN(c2ccccn2)CC1)OCO4 [BS-HH-044]
IC50 [1]: 0.25 mg/L (≈ 0.369 µM) | IC90 [1]: 0.64 mg/L (≈ 0.946 µM) | IC50 [2]: 5.18 mg/L (≈ 7.65 µM) | IC90 [2]: 16 mg/L (≈ 23.6 µM) | IC50 [3]: 1.41 mg/L (≈ 2.08 µM) | IC90 [3]: 16 mg/L (≈ 23.6 µM) | IC50 [4]: 0.38 mg/L (≈ 0.561 µM) | IC90 [4]: 2.25 mg/L (≈ 3.32 µM) | IC50 [5]: 0.48 mg/L (≈ 0.709 µM) | IC90 [5]: 16 mg/L (≈ 23.6 µM) | IC50 [6]: 0.94 mg/L (≈ 1.39 µM) | IC90 [6]: > 16 mg/L | IC50 [7]: 0.74 mg/L (≈ 1.09 µM) | IC90 [7]: > 16 mg/L | IC50 [8]: 1.23 mg/L (≈ 1.82 µM) | IC90 [8]: > 16 mg/L | IC50 [9]: 0.16 mg/L (≈ 0.236 µM) | IC90 [9]: 2.37 mg/L (≈ 3.5 µM) | IC50 [10]: 1.76 mg/L (≈ 2.6 µM) | IC90 [10]: > 16 mg/L | IC50 [11]: 0.71 mg/L (≈ 1.05 µM) | IC90 [11]: > 16 mg/L | IC50 [12]: 1.91 mg/L (≈ 2.82 µM) | IC90 [12]: > 16 mg/L | IC50 [13]: 1.63 mg/L (≈ 2.41 µM) | IC90 [13]: 16 mg/L (≈ 23.6 µM) | IC50 [14]: 0.78 mg/L (≈ 1.15 µM) | IC90 [14]: > 16 mg/L | IC50 [15]: 0.76 mg/L (≈ 1.12 µM) | IC90 [15]: > 16 mg/L | IC50 [16]: 0.8 mg/L (≈ 1.18 µM) | IC90 [16]: > 16 mg/L | IC50 [17]: 3.97 mg/L (≈ 5.87 µM) | IC90 [17]: > 16 mg/L | IC50 [18]: 0.64 mg/L (≈ 0.946 µM) | IC90 [18]: 16 mg/L (≈ 23.6 µM) | IC50 [19]: 1.91 mg/L (≈ 2.82 µM) | IC90 [19]: > 16 mg/L | IC50 [20]: 0.48 mg/L (≈ 0.709 µM) | IC90 [20]: 3.36 mg/L (≈ 4.96 µM)

COC1=C[C@]23CCCN2CCc2cc4c(cc2[C@@H]3[C@@H]1OC(=O)[C@@](O)(CCCC(C)(C)O)CC(=O)N1CCN(c2ccc(F)cc2)CC1)OCO4 [BS-HH-046, O-3-[(2R)-2,6-dihydroxy-2-(2′-(4-(4-fluorophenyl)piperazinyl)-2′-oxoethyl)-6-methylheptanoyl]cephalotaxine]
anti-A549, anti-PANC-1, anti-Becap37, anti-MG63, anti-Huh7, anti-RKO, anti-Hela, anti-CaES-17, anti-CNE, anti-Hep-2, anti-PC-3 and anti-SK-OV-3 effect [21]: strong | IC50 [1]: 0.19 mg/L (≈ 0.274 µM) | IC90 [1]: 0.5 mg/L (≈ 0.721 µM) | IC50 [2]: 14.5 mg/L (≈ 20.9 µM) | IC90 [2]: > 16 mg/L | IC50 [3]: 0.5 mg/L (≈ 0.721 µM) | IC90 [3]: 7.84 mg/L (≈ 11.3 µM) | IC50 [4]: 0.26 mg/L (≈ 0.375 µM) | IC90 [4]: 2.26 mg/L (≈ 3.26 µM) | IC50 [5]: 0.32 mg/L (≈ 0.461 µM) | IC90 [5]: 15.2 mg/L (≈ 21.9 µM) | IC50 [6]: 1.37 mg/L (≈ 1.97 µM) | IC90 [6]: > 16 mg/L | IC50 [7]: 0.39 mg/L (≈ 0.562 µM) | IC90 [7]: 8.28 mg/L (≈ 11.9 µM) | IC50 [8]: 0.27 mg/L (≈ 0.389 µM) | IC90 [8]: > 16 mg/L | IC50 [9]: 0.054 mg/L (≈ 0.0778 µM) | IC90 [9]: 0.93 mg/L (≈ 1.34 µM) | IC50 [10]: 0.84 mg/L (≈ 1.21 µM) | IC90 [10]: > 16 mg/L | IC50 [11]: 0.4 mg/L (≈ 0.577 µM) | IC90 [11]: > 16 mg/L | IC50 [12]: 1.56 mg/L (≈ 2.25 µM) | IC90 [12]: > 16 mg/L | IC50 [13]: 0.98 mg/L (≈ 1.41 µM) | IC90 [13]: 16 mg/L (≈ 23.1 µM) | IC50 [14]: 0.78 mg/L (≈ 1.12 µM) | IC90 [14]: > 16 mg/L | IC50 [15]: 0.3 mg/L (≈ 0.432 µM) | IC90 [15]: 16 mg/L (≈ 23.1 µM) | IC50 [16]: 0.23 mg/L (≈ 0.332 µM) | IC90 [16]: > 16 mg/L | IC50 [17]: 1.89 mg/L (≈ 2.72 µM) | IC90 [17]: > 16 mg/L | IC50 [18]: 0.25 mg/L (≈ 0.36 µM) | IC90 [18]: > 16 mg/L | IC50 [19]: 0.45 mg/L (≈ 0.649 µM) | IC90 [19]: > 16 mg/L | IC50 [20]: 0.17 mg/L (≈ 0.245 µM) | IC90 [20]: 0.72 mg/L (≈ 1.04 µM)
